Laboratory results published in patent US9434711B2 (Janssen Pharmaceutica, NV, priority 2007, dated 2016).
Like-named read-outs stand apart in the source and are kept apart here.

What was measured:
canine TRPM8 [1] = target: T1, canine TRPM8 (Canis lupus familiaris, UniProt Q1A7N1); test: In Vitro Canine TRPM8 Functional Assay (Ca2+ fluorescence, icilin activation); assay type: cell-based; conditions: for inhibition at 0.2 µM / % Inh @ 0.2 (μM): compound at 0.2 μM, canine TRPM8, icilin activation; for inhibition at 0.2 µM: read-out: % Inh @ 0.2; for IC50: HEK293 cells stably expressing canine TRPM8, icilin activation, eight-point dose-response, read-out: IC50
T1 sequence (Q1A7N1 1-1104): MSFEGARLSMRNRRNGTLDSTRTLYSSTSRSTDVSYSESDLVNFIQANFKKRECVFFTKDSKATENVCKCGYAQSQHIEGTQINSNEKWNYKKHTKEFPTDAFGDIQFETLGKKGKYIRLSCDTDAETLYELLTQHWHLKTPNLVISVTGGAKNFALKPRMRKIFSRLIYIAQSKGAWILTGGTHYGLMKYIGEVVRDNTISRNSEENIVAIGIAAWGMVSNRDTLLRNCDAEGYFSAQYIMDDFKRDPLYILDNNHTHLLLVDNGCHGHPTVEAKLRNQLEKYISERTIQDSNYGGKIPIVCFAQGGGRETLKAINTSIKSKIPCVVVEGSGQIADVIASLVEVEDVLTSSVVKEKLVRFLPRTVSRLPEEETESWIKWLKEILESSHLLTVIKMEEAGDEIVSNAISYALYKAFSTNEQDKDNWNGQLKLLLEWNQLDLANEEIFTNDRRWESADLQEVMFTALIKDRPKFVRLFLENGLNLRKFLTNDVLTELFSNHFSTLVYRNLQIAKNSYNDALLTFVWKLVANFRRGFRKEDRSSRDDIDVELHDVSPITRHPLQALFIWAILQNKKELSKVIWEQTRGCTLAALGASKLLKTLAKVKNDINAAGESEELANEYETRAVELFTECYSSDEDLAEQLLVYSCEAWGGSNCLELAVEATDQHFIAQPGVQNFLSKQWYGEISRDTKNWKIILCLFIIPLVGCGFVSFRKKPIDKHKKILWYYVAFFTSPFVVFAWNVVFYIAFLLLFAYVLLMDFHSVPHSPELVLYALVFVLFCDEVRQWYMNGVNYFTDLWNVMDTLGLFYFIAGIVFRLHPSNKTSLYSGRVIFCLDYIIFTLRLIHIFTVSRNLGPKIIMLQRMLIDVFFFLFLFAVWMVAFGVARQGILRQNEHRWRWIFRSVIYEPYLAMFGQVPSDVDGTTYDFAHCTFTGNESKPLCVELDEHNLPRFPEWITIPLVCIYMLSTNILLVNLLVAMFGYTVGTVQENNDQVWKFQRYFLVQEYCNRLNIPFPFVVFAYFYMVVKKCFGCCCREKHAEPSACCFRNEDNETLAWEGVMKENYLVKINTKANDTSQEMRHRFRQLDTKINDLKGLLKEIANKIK
In short: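 HEK293 cells stably expressing canine TRPM8 loaded with Calcium 3 dye; compound added and Ca2+ fluorescence monitored 5 min before icilin at a final level giving ~80% maximal response, read on FLIPR or FDSS. EC50 or IC50 from eight-point dose-response, quadruplicate wells per point.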

Male Sprague Dawley rats [2] = test: Inhibition of Icilin-Induced "Wet-Dog" Shakes in Rats; assay type: in vivo, rat; conditions: Na salt form; for ED50: Rattus norvegicus, po
Experimental: Male Sprague Dawley rats (220-450 g, Charles River Labs, n=6-9/treatment) were used to evaluate the ability of selected compounds of the formula (I) to block icilin-induced “wet-dog” shakes (WDS). Compounds of the formula (I) were administered in an appropriate vehicle, such as hydroxypropyl-β-cyclodextrin (HPβCD), methocellulose, 10% Solutol, or H2O, or the like, by the appropriate route, i.p. or p.o., 30-120 minutes before icilin. Icilin was administered in PEG-400 or 10% solutol/H2O, at 1.0 or 3.0 mg/kg, i.p. and spontaneous “wet-dog” shakes were counted 10-20 minutes post-icilin. Results are presented as a percent inhibition of shakes, which was calculated as [1-(test compound WDS count/vehicle WDS count)]×100.

Male Sprague Dawley rats [3] = test: Chronic Constriction Injury (CCI)-Induced Model of Neuropathic Pain, Acetone-Induced Hypersensitivity; assay type: in vivo, rat; conditions: Na salt form; for inhibition in vivo at 30 mg/kg / Percent Inhibition: 30 mg/kg p.o.
From the text: Male Sprague Dawley rats (225-450 g; n=5-8/treatment) were used to evaluate the ability of selected compounds of the formula (I) to reverse CCI-induced cold hypersensitivity. Four loose ligatures of 4-0 chromic gut were surgically placed around the left sciatic nerve under inhalation anesthesia as described by Bennett et al (Bennett G J, Xie Y K. Pain 1988, 33(1): 87-107). Fourteen to 35 days following CCI surgery, subjects were placed in elevated observation chambers containing wire mesh floors and five applications of acetone (0.05 mL/application separated by approximately 5 minutes) were spritzed onto the plantar surface of the paw using a multidose syringe. An abrupt withdrawal or lifting of the paw was considered a positive response. The number of positive responses was recorded for each rat over the five trials. Following baseline withdrawal determinations, compounds of formula (I) are administered in an appropriate vehicle, such as hydroxypropyl-β-cyclodextrin (HP β CD), methylcellulose, Methocel, 10% Solutol, or H2O, or the like, by the appropriate route, i.p. or p.o. […] Results are presented as a percent inhibition of […], which was calculated for each subject as [1−(test compound withdrawals/pre-test withdrawals)]×100 and then averaged by treatment.

canine TRPM8 [4] = target: T1, canine TRPM8; test: TRPM8 Patch Clamp Assays (whole-cell, menthol or cold activation); assay type: cell-based; conditions: cold stimulation
Experimental: For patch clamp experiments, HEK293 cells are stably transfected with canine TRPM8 and cultured in DMEM supplemented with 10% fetal bovine serum, 100 units/ml penicillin, 100 μg/ml streptomycin and 1 mg/ml G418. Cells are maintained at 37° C. and in 5% CO2.
The extracellular solution contains (in mM): NaCl, 132; EGTA, 1; KCl, 5.4; MgCl2, 0.8; HEPES, 10; glucose, 10; pH=7.4. Recordings are performed using the conventional whole-cell patch clamp technique, 1-2 days after plating cells onto glass coverslips at densities appropriate for single cell recording. Currents are amplified by a patch clamp amplifier and filtered at 2 kHz (Axopatch 200B, Molecular Devices, Union City, Calif.). Menthol (100 μM) is applied to the cell at 0.5 ml/min via a gravity-fed perfusion system. Recordings involving menthol activation are performed at 22° C.
In experiments where temperatures are varied, temperature ramps are generated by cooling the perfusate in an in-line cooler (Model SC-20, Warner Instruments, Hamden, Conn.) controlled by a temperature controller (Model CL-100, Warner Instruments). The temperature in the vicinity of the recorded cell is measured with a custom-made miniature thermo-microprobe connected to a monitoring thermometer (Model TH-8, Physitemp, Clifton, N.J.), and sampled using Digidata 1322A and pClamp 9.0 (Molecular Devices), as are the currents concurrently measured in the whole-cell patch clamp mode. The current is continuously sampled (at 100 Hz) at a holding potential of −60 mV.
Compounds of the formula (I) are diluted from 10 mM DMSO stocks (stored at −20° C.) into an extracellular solution either containing 100 μM menthol or subjected to cooling. Increasing concentrations of a compound are applied to a cell in a cumulative manner and concentration-dependent responses are measured after steady-state activation is achieved by either 100 μM menthol or cooling to 10° C. A saturating concentration of a reference antagonist is applied at the end of an experiment (either in the presence of 100 μM menthol or 10° C. temperature) to establish the baseline from which all the other measurements are subtracted.
Percentage inhibition by a compound is calculated as follows:
100×(1−Icomp/I0); where Icomp and I0 are steady-state current amplitudes in either the presence or absence of a concentration of compounds of the formula (I).

[5] = 0.5 h, HPbCD, 30 min pre-icilin
[6] = dose 30 p.o., HPbCD, 30 min pre-icilin
[7] = dose 30 p.o., HPbCD, 60 min pre-icilin
[8] = dose 10 p.o., HPbCD, 60 min pre-icilin

inhibition at 0.2 µM (canine TRPM8 [1]) | Compound | IC50 (canine TRPM8 [1]) | % Inh @ 0.2 (μM) (canine TRPM8 [1]) | also measured
98% | O=C(O)c1ccc(S(=O)(=O)N(CCC(F)(F)F)c2sc3ccccc3c2Br)cc1 [Compound 271, N-(3-Bromo-benzo[b]thiophen-2-yl)-N-(3,3,3-trifluoro-propyl)-4-carboxy-benzenesulfonamide] |  |  | ED50 (Male Sprague Dawley rats [2]; 0.5 h, Water, 30 min pre-icilin): 5.7 mg/kg; inhibition in vivo at 10 mg/kg (Male Sprague Dawley rats [3]; Rattus norvegicus, po, 1 h, 10 mg/kg p.o., HPbCD, pretreatment 1 hr, read-out: Percent Inhibition): 24%; inhibition in vivo at 100 mg/kg (Male Sprague Dawley rats [3]; Rattus norvegicus, po, 1 h, 100 mg/kg p.o., HPbCD, pretreatment 1 hr, read-out: Percent Inhibition): 56%
97% | CCCCN(c1sc2ccccc2c1Br)S(=O)(=O)c1ccc(C(=O)O)cc1 [Compound 272, N-(3-Bromo-benzo[b]thiophen-2-yl)-N-(butyl)-4-carboxy-benzenesulfonamide] | 6.2 nM |  | ED50 (Male Sprague Dawley rats [2]; [5]): 22 mg/kg; inhibition in vivo at 30 mg/kg (Male Sprague Dawley rats [3]; Rattus norvegicus, po, 1 h, HPbCD, pretreatment 1 hr, read-out: Percent Inhibition): 31%
96% | O=C(O)c1ccc(S(=O)(=O)N(CC2CC2)c2sc3ccccc3c2Br)cc1 [Compound 273, N-(3-Bromo-benzo[b]thiophen-2-yl)-N-(cyclopropylmethyl)-4-carboxy-benzenesulfonamide] | 18 nM |  | ED50 (Male Sprague Dawley rats [2]; [5]): 53 mg/kg; inhibition in vivo at 30 mg/kg (Male Sprague Dawley rats [3]; Rattus norvegicus, po, 0.5 h, HPbCD, pretreatment 0.5 hr, read-out: Percent Inhibition): 49%
15% | CCS(=O)(=O)N(CCN1CCOCC1)c1sc2ccccc2c1C(C)O (centres unmarked) [Compound 284, N-(3-(1-Hydroxyethyl)benzo[b]thiophen-2-yl)-N-(2-morpholinoethyl)-ethanesulfonamide] |  |  | IC50 (canine TRPM8 [4]): 8 nM; inhibition at 0.003 µM (canine TRPM8 [4]; 0.003 μM): 24%; inhibition at 0.01 µM (canine TRPM8 [4]; 0.01 μM): 71%
101% | O=C(O)c1ccc(S(=O)(=O)N(CCCCC(F)(F)F)c2sc3ccccc3c2Br)cc1 [Compound 395, N-(3-Bromo-benzo[b]thiophen-2-yl)-N-(5,5,5-trifluoro-pentyl)-4-carboxy-benzenesulfonamide] | 3 nM |  | ED50 (Male Sprague Dawley rats [2]; 1 h, Water, 60 min pre-icilin): 7.6 mg/kg; inhibition in vivo at 30 mg/kg (Male Sprague Dawley rats [3]; Rattus norvegicus, po, 2 h, Water, pretreatment 2 hr, read-out: Percent Inhibition): 23%
 | CCCCN(c1sc2ccccc2c1C)S(=O)(=O)c1ccc(C(=O)[O-])cc1.[Na+] [Compound 398, Sodium, N-(Butyl)-N-(3-methylbenzo[b]thiophen-2-yl)-4-carboxy-benzenesulfonamide] | 6 nM | 101% | % Inhibition (Male Sprague Dawley rats [2]; [6]): 7%
 | Cc1c(N(CCC2CC2)S(=O)(=O)c2ccc(C(=O)[O-])cc2)sc2ccccc12.[Na+] [Compound 400, Sodium, N-(2-Cyclopropylethyl)-N-(3-methylbenzo[b]thiophen-2-yl)-4-carboxy-benzenesulfonamide] | 5 nM | 102% | % Inhibition (Male Sprague Dawley rats [2]; [6]): 84%; Percent Inhibition (Male Sprague Dawley rats [3]; Water, pretreatment 1 hr): 40%; Percent Inhibition (Male Sprague Dawley rats [3]; Water, pretreatment 3 hr): 25%
 | Cc1c(N(CCC(F)(F)F)S(=O)(=O)c2ccc(C(=O)[O-])cc2)sc2ccccc12.[Na+] [Compound 409, Sodium, N-(3-Methylbenzo[b]thiophen-2-yl)-N-(3,3,3-trifluoro-propyl)-4-carboxy-benzenesulfonamide] | 10 nM | 101% | % Inhibition (Male Sprague Dawley rats [2]; [6]): 16%
 | O=S(=O)(c1ccc(-c2nnn[nH]2)cc1)N(CCCC(F)(F)F)c1sc2ccccc2c1Br [Compound 429] | 17 nM | 93% | % Inhibition (Male Sprague Dawley rats [2]; [6]): 41%; % Inhibition (Male Sprague Dawley rats [2]; [7]): 36%
 | O=C(O)c1ccc(S(=O)(=O)N(CCC2CC2)c2sc3ccccc3c2Cl)cc1 [Compound 479] | 8 nM | 100% | % Inhibition (Male Sprague Dawley rats [2]; [7]): 77%
101% | Cc1c(N(Cc2ccc(C(F)(F)F)c(F)c2)S(=O)(=O)c2ccc(C(=O)O)cc2)sc2ccccc12 [Compound 497, N-(3-Methyl-benzo[b]thiophen-2-yl)-N-(3-fluoro-4-trifluoromethyl-benzyl)-4-carboxy-benzenesulfonamide] | 0.4 nM |  | inhibition in vivo at 30 mg/kg (Male Sprague Dawley rats [3]; Rattus norvegicus, po, 4 h, Water, pretreatment 4 hr, read-out: Percent Inhibition): 60%
 | CC(C)(O)c1c(N(CCC(F)(F)F)S(=O)(=O)c2ccc(C(=O)[O-])cc2)sc2ccccc12.[Na+] [Compound 505, Sodium, N-(3-(1-Hydroxy-1-methyl-ethyl)-benzo[b]thiophen-2-yl)-N-(3,3,3-trifluoro-propyl)-4-carboxy-benzenesulfonamide] | 24 nM | 98% | % Inhibition (Male Sprague Dawley rats [2]; [7]): 72%; Percent Inhibition (Male Sprague Dawley rats [3]; HPbCD, pretreatment 1 hr): 11%
102% | Cc1c(N(Cc2ccc3c(c2)OC(F)(F)O3)S(=O)(=O)c2ccc(C(=O)O)cc2)sc2ccccc12 [Compound 524, N-(3-Methyl-benzo[b]thiophen-2-yl)-N—(C-(2,2-difluoro-benzo[1,3]dioxol-5-yl)-methyl)-4-carboxy-benzenesulfonamide] |  |  | inhibition in vivo at 30 mg/kg (Male Sprague Dawley rats [3]; Rattus norvegicus, po, 3 h, HPbCD, pretreatment 3 hr, read-out: Percent Inhibition): 46%
 | CC(C)(O)c1c(N(CCC2CC2)S(=O)(=O)c2ccc(C(=O)[O-])cc2)sc2ccccc12.[Na+] [Compound 657, Sodium, N-(2-Cyclopropyl-ethyl)-N-(3-(1-hydroxy-1-methyl-ethyl)-benzo[b]thiophen-2-yl)-4-carboxy-benzenesulfonamide] | 7.5 nM | 101% | % Inhibition (Male Sprague Dawley rats [2]; [8]): 32%
 | CC(C)(O)c1c(N(CCCCC(F)(F)F)S(=O)(=O)c2ccc(C(=O)[O-])cc2)sc2ccccc12.[Na+] [Compound 658, Sodium, N-(3-(1-Hydroxy-1-methyl-ethyl)-benzo[b]thiophen-2-yl)-N-(5,5,5-trifluoro-pentyl)-4-carboxy-benzenesulfonamide] | 4.3 nM | 101% | % Inhibition (Male Sprague Dawley rats [2]; [8]): 63%
